Reference: patent publication US12005096B2, “Apoaequorin and vitamin d-containing compositions and methods of using same” (QUINCY BIOSCIENCE, LLC, priority 2016, dated 2024)
Where two headings read alike, the source gives them in different places.

What was measured:
[1] = test system: rat hippocampal brain slices; assay: Neuroprotection in rat hippocampal brain slices after oxygen glucose deprivation (OGD); assay type: in vivo; conditions: 5-min OGD; AQ by direct hippocampal injection; vitamin D in diet 0.0125 mg/kg for ~10 days; preliminary results
[2] = not given; remark: listed apart in the source
[3] = not given; remark: listed apart in the source
[4] = apoaequorin 10 mg daily, N=56, eight days to 30 days

Substance	cell death (dead and dying, blue stained cells) after OGD [1]	overall quality of sleep, energy, mood, pain, general health (change from baseline of scores) (32 patients, 90 day period, open-label)	participants discontinued the study due to an adverse event (in vivo)	memory performance (memory screening tool) ([2]; 56 participants, day 8 and day 30)	memory improvement ([2]; apoaequorin 10 mg daily, 56 participants, after 30 days)	participants with improvement in general memory [2, 4]	participants with improvement in remembering driving directions [2, 4]	participants with improvement in retaining information [2, 4]	participants with improvement in word recall [2, 4]	participants discontinued the study due to an adverse event ([2]; in vivo)	participants with an increase in cognitive ability ([3]; 32 patients, 90 days)	cognition (standardized cognitive battery) ([3]; 32 patients, day 8, 30, 60-90)	participants discontinued the study due to an adverse event ([3]; in vivo)
apoaequorin	few er dead and dying cells	increase	No participants discontinued the study due to an adverse event	improved memory performance as early as eight days but with statistically greater improvement at day 30	statistically significant improvement in memory	57%	84%	51%	66%	No participants discontinued the study due to an adverse event	Greater than 51%	improved cognition as early as eight days but with statistically greater improvement at day 30, as well as 60-90	No participants discontinued the study due to an adverse event
vitamin D [reference compound]	fewer dead or dying cells												
